Experimental data reported in patent US10669272B2, “Substituted naphthyridinone compounds useful as T cell activators” (BRISTOL-MYERS SQUIBB COMPANY, priority 2018, dated 2020).
Counter-ions that a name gives are not always drawn. Like-named read-outs stand apart in the source and are kept apart here.

Tests used:
human DGKα = target: T1, human DGKα (Homo sapiens, UniProt P23743); experiment: DGKα LIPGLO assay (extruded liposome substrate), in vitro DGK inhibition; type: biochemical; details: read-out: DGKa LIPGLO IC50
T1 construct: TVMV protease cleavage site (C); Hexa-His (C); made in house; host or cells: Sf9 insect cells (baculovirus, Bac-to-Bac)

human DGKζ = target: T2, human DGKζ (Homo sapiens, UniProt Q13574); experiment: DGKζ LIPGLO assay (extruded liposome substrate), in vitro DGK inhibition; type: biochemical; details: read-out: DGKz LIPGLO IC50
T2 construct: TVMV protease cleavage site (C); Hexa-His (C); made in house; host or cells: Sf9 insect cells (baculovirus, Bac-to-Bac)

Human venous whole blood = experiment: Human whole blood IFN-γ assay; type: cell-based; details: human whole blood, read-out: INFg Whole Blood Normalized Agonist EC50;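 further: blood from healthy donors exposed to compound for 1 h before stimulation with anti-CD3 and anti-CD28 at 1 µg/mL each, IFN-γ quantified in supernatant by AlphaLISA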
[1] = normalized to 3 μM reference compound with anti-CD3 plus anti-CD28 as 100% activation
[2] = Homo sapiens, 24 h, normalized to 3 μM reference compound with anti-CD3 plus anti-CD28 as 100% activation
[3] = Homo sapiens, 24 h, anti-CD3 plus anti-CD28, 24 hours, 3 μM reference compound = 100% activation
[4] = anti-CD3 plus anti-CD28, 24 hours, 3 μM reference compound = 100% activation

T2 sequence (Q13574 with tags, fused parts or gaps isoform Q13574-4): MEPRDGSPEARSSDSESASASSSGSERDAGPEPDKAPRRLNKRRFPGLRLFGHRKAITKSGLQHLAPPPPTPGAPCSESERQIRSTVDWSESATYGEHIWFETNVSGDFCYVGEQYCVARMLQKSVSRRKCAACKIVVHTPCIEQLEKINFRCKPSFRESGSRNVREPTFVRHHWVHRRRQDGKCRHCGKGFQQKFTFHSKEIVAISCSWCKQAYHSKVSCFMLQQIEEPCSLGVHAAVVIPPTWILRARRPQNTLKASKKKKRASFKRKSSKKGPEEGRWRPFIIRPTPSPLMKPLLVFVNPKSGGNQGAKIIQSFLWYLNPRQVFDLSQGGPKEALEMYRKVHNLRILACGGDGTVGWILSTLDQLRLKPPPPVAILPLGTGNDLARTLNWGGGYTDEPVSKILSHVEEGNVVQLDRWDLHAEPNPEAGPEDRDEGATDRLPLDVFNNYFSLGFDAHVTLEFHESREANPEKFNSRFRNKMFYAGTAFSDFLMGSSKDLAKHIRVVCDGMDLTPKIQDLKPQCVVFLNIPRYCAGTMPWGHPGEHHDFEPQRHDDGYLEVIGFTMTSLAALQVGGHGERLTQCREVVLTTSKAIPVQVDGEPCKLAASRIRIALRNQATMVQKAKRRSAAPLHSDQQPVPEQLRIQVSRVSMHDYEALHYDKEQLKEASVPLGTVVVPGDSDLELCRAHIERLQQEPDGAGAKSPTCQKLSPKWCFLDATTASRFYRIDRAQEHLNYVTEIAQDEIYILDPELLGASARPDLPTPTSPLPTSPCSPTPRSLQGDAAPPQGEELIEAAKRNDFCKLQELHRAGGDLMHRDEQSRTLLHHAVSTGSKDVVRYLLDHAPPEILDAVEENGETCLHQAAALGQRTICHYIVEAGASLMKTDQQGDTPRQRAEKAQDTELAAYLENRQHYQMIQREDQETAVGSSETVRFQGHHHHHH
T1 sequence (P23743 with tags, fused parts or gaps): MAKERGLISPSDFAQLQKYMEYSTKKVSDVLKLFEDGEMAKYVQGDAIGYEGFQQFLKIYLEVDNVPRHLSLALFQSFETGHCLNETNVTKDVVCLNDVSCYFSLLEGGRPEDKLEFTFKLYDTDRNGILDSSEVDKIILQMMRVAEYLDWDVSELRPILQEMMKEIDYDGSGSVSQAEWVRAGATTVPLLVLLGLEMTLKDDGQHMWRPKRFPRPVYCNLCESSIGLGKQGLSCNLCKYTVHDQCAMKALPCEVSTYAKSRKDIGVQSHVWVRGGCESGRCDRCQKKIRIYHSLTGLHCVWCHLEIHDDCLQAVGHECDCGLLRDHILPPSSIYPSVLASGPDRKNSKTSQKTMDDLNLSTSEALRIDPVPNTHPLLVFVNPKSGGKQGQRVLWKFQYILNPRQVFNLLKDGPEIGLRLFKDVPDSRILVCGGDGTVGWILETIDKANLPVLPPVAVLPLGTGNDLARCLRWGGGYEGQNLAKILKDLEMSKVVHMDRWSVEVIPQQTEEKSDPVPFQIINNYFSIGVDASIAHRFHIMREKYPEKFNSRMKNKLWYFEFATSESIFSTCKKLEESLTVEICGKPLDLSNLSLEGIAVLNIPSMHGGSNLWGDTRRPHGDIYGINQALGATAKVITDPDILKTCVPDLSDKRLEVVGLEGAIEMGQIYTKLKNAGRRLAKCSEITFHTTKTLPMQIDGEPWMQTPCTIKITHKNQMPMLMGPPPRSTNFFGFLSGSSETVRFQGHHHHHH

SMILES	IC50 (human DGKα; liposome (LIPGLO) assay) [nM]	IC50 (human DGKζ; liposome (LIPGLO) assay) [nM]	EC50 (Human venous whole blood; [1]) [nM]	EC50 (Human venous whole blood; [2]) [nM]	also measured
CCC(c1ccc(C2CC2)cc1F)N1C[C@H](C)N(c2cc(=O)n(C)c3ccc(C#N)nc23)C[C@H]1C (stereo partly drawn) [Example 1218]	67	69		320	
COCc1cc(F)ccc1C(C)N1C[C@H](C)N(c2cc(=O)n(C)c3ccc(C#N)nc23)C[C@H]1C (single isomer, unassigned) [Example 1315]	79000	1400		20000	
CCC(c1cc(OC(F)(F)F)ccc1F)N1C[C@H](CC)N(c2cc(=O)n(C)c3ccc(C#N)nc23)C[C@H]1C (single isomer, unassigned) [Example 1381]	19000	2100	20000		
CC[C@@H]1CN(c2cc(=O)n(C)c3ccc(C#N)nc23)[C@@H](C)CN1C(C)c1ccc(OC)cc1 (single isomer, unassigned) [Example 482]	130	170	290		
Cc1ccc(C(c2cccc(Cl)c2)N2CCN(c3c(C#N)c(=O)n(C)c4ccc(C#N)nc34)C[C@H]2C)nc1 (single isomer, unassigned) [Example 928]					IC50 (human DGKα; DGKα liposome (LIPGLO) assay): 2400 nM; IC50 (human DGKζ; DGKζ liposome (LIPGLO) assay): 1500 nM; EC50 (Human venous whole blood; [3]): 1700 nM
C[C@@H]1CN(c2cc(=O)n(C)c3ccc(C#N)nc23)[C@@H](C)CN1C(CO)c1ccc(C(F)(F)F)cn1 (single isomer, unassigned) [Example 1280]	1300	8500		9900	
C[C@@H]1CN(c2cc(=O)n(C)c3ccc(C#N)nc23)[C@@H](C)CN1Cc1nnnn1C1CC1 [Example 1423]	50000	44000		20000	
C[C@@H]1CN(c2c(C#N)c(=O)n(C)c3ccc(C#N)nc23)CCN1C(c1ccc(Cl)cc1)c1ccc2c(c1)OC(F)(F)O2 (single isomer, unassigned) [Example 941]					IC50 (human DGKα; DGKα liposome (LIPGLO) assay): 4300 nM; IC50 (human DGKζ; DGKζ liposome (LIPGLO) assay): 20000 nM; EC50 (Human venous whole blood; [3]): 20000 nM
C[C@@H]1CN(C(c2ccc(F)cc2)c2ccc(Cl)cc2)[C@@H](CO)CN1c1cc(=O)n(C)c2ccc(C#N)nc12 (single isomer, unassigned) [Example 1174]	11000	430		1400	
CC(c1ccc2c(c1)OC(F)(F)O2)N1C[C@H](C)N(c2cc(=O)n(C)c3ccc(C#N)nc23)C[C@H]1C (single isomer, unassigned) [Example 654]	2000	130	400		
COc1cc(F)c(C(C)N2C[C@H](C)N(c3cc(=O)n(C)c4ccc(C#N)nc34)C[C@H]2C)cc1OC (single isomer, unassigned) [Example 1247]	24000	7400	20000		
CC(c1ccc(OC(C)(C)C)cc1)N1C[C@H](C)N(c2cc(=O)n(C)c3ccc(C#N)nc23)C[C@H]1C (single isomer, unassigned) [Example 1442]	65	1000	530		
COc1cc(F)ccc1C(C)N1C[C@H](C)N(c2cc(=O)n(C)c3ccc(C#N)nc23)C[C@H]1C (single isomer, unassigned) [Example 1236]	11000	43	1300		
Cc1noc(C)c1CN1C[C@H](C)N(c2cc(=O)n(C)c3ccc(C#N)nc23)C[C@H]1C [Example 1426]	33000	4000		20000	
C[C@@H]1CN(c2c(C#N)c(=O)n(C)c3ccc(C#N)nc23)CCN1C(c1cccc(F)c1)c1ccc(C(F)(F)F)cn1 (single isomer, unassigned) [Example 949]					IC50 (human DGKα; DGKα liposome (LIPGLO) assay): 6600 nM; IC50 (human DGKζ; DGKζ liposome (LIPGLO) assay): 1100 nM; EC50 (Human venous whole blood; [4]): 20000 nM
CC[C@@H]1CN(c2cc(=O)n(C)c3ccc(C#N)nc23)[C@@H](C)CN1C(C)c1ccc(OC(C)C)cc1 (single isomer, unassigned) [Example 1348]	110	15	29		
CC[C@H]1CN(C(c2ccc(F)cc2)c2ccc(C#N)cc2)[C@H](CC)CN1c1cc(=O)n(C)c2ccc(C#N)nc12 (stereo partly drawn) [Example 1036]	300	520	200		
CC[C@H]1CN(C(C)c2cc(F)cc(OC(F)(F)F)c2)[C@H](C)CN1c1cc(=O)n(C)c2ccc(C#N)nc12 (stereo partly drawn) [Example 1384]	9400	260		8000	
CC(c1ccc(OC(F)(F)F)cc1)N1C[C@H](C)N(c2c(C#N)c(=O)n(C)c3ccc(C#N)nc23)C[C@H]1C (single isomer, unassigned) [Example 801]					IC50 (human DGKα; DGKα liposome (LIPGLO) assay): 68 nM; IC50 (human DGKζ; DGKζ liposome (LIPGLO) assay): 2200 nM; EC50 (Human venous whole blood; [3]): 13000 nM
CCC(c1cc(Cl)cc2c1OCC2)N1C[C@H](C)N(c2cc(=O)n(C)c3ccc(C#N)nc23)C[C@H]1C (single isomer, unassigned) [Example 356]	> 250000	420		20000	
CC(c1ccc(F)cc1F)N1CCN(c2c(C#N)c(=O)n(C)c3ccc(C#N)nc23)C[C@H]1C (single isomer, unassigned) [Example 970]					IC50 (human DGKα; DGKα liposome (LIPGLO) assay): 870 nM; IC50 (human DGKζ; DGKζ liposome (LIPGLO) assay): 28000 nM; EC50 (Human venous whole blood; [4]): 11000 nM
CC(c1ccc(C2(C#N)CC2)cc1F)N1C[C@H](C)N(c2cc(=O)n(C)c3ccc(C#N)nc23)C[C@H]1C (single isomer, unassigned) [Example 1252]	5700	3100		7700	
C[C@@H]1CN(c2cc(=O)n(C)c3ccc(C#N)nc23)[C@@H](C)CN1C(c1ccccc1)c1c(F)cccc1F (single isomer, unassigned) [Example 273, TFA]	3800	15000			EC50 (Human venous whole blood; normalized to 3 μM reference compound with anti-CD3 plus anti-CD28 as 100% activation, TFA): 7100 nM
CC[C@@H]1CN(c2cc(=O)n(C)c3ccc(C#N)nc23)[C@@H](C)CN1C(C)c1ccc(C(F)(F)F)cc1F (single isomer, unassigned) [Example 1086]	6200	2100	2500		
CC[C@H]1CN(C(C)c2ccc(F)cc2F)[C@H](CC)CN1c1cc(=O)n(C)c2ccc(C#N)nc12 (single isomer, unassigned) [Example 1055]	17	16	16		
CC(c1ccc(C#N)cc1)N1CCN(c2c(C#N)c(=O)n(C)c3ccc(C#N)nc23)C[C@H]1C (stereo partly drawn) [Example 954]					IC50 (human DGKα; DGKα liposome (LIPGLO) assay): 130 nM; IC50 (human DGKζ; DGKζ liposome (LIPGLO) assay): 6500 nM; EC50 (Human venous whole blood; [3]): 20000 nM
CCC(c1ccc(OC(F)(F)F)cc1)N1C[C@H](C)N(c2cc(=O)n(C)c3ccc(C#N)nc23)C[C@H]1CC (single isomer, unassigned) [Example 1199]	20	37	34		
Cc1cccc(C(c2ccc(F)cc2)N2C[C@H](C)N(c3c(C#N)c(=O)n(C)c4ccc(C#N)nc34)C[C@H]2C)n1 (stereo partly drawn) [Example 816]					IC50 (human DGKα; DGKα liposome (LIPGLO) assay): 2600 nM; IC50 (human DGKζ; DGKζ liposome (LIPGLO) assay): 3100 nM; EC50 (Human venous whole blood; [4]): 1100 nM
CC(c1cccc2c1OC(F)(F)O2)N1C[C@H](C)N(c2cc(=O)n(C)c3ccc(C#N)nc23)C[C@H]1C (single isomer, unassigned) [Example 1216]	83000	150	1800		
CC(c1ccccc1OC(F)(F)F)N1C[C@H](C)N(c2cc(=O)n(C)c3ccc(C#N)nc23)C[C@H]1C (single isomer, unassigned) [Example 1212]	23000	110		11000	

The next lines start with results.

IC50 (human DGKα; liposome (LIPGLO) assay) [nM]	IC50 (human DGKζ; liposome (LIPGLO) assay) [nM]	SMILES	EC50 (Human venous whole blood; [1]) [nM]	EC50 (Human venous whole blood; [2]) [nM]	also measured
150	2700	C[C@@H]1CN(c2cc(=O)n(C)c3ccc(C#N)nc23)[C@@H](C)CN1C(c1ccc(F)cc1)c1ncccn1 (stereo partly drawn) [Example 677]	1800		
1200	2500	Cc1ccc(C(c2ccc(F)cc2)N2C[C@H](C)N(c3c(F)c(=O)n(C)c4ccc(C#N)nc34)C[C@H]2C)cc1 (stereo partly drawn) [Example 335, 7-fluoro-8-((2S,5R)-4-((4-fluorophenyl)(p-tolyl)methyl)-2,5-dimethylpiperazin-1-yl)-5-methyl-6-oxo-5,6-dihydro-1,5-naphthyridine-2-carbonitrile]	1200		
2100	470	COC[C@H]1CN(C(c2ccc(F)cc2)c2ccc(F)cc2)[C@H](C)CN1c1cc(=O)n(C)c2ccc(C#N)nc12 [Example 1421, 8-((2R,5R)-4-(bis(4-fluorophenyl)methyl)-2-(methoxymethyl)-5-methylpiperazin-1-yl)-5-methyl-6-oxo-5,6-dihydro-1,5-naphthyridine-2-carbonitrile]		1500	
47000	2100	C[C@@H]1CN(c2cc(=O)n(C)c3ccc(C#N)nc23)[C@@H](C)CN1C(c1ccc(F)cc1)c1cnn2ccccc12 (single isomer, unassigned) [Example 699]	980		
2300	690	Cc1ccc(C(c2ccc(C)c(Cl)c2)N2C[C@H](C)N(c3cc(=O)n(C)c4ccc(C#N)nc34)C[C@H]2C)nc1 (stereo partly drawn) [Example 399, 8-((2S,5R)-4-((3-chloro-4-methylphenyl)(5-methylpyridin-2-yl)methyl)-2,5-dimethylpiperazin-1-yl)-5-methyl-6-oxo-5,6-dihydro-1,5-naphthyridine-2-carbonitrile]	570		
53	20	COC[C@@H]1CN(c2cc(=O)n(C)c3ccc(C#N)nc23)[C@@H](C)CN1C(c1ccc(F)cc1)c1ccon1 (single isomer, unassigned) [Example 1400]	120		
